# Results reported in patent US20110098242A1, “Methods and Compositions for Diagnosing and Treating Cervical Intraepithelial Neoplasia and Cervical Cancer” (priority 2008, published 2011).
# Key:
# Format in all cases: cell-based, human
# [1] = test system: cystatin E/M gene; assay: RT PCR analysis of cystatin E/M expression in treated SiHa cells
# [2] = test system: cystatin E/M; assay: Immunofluorescence of cystatin E/M protein in treated SiHa cells; conditions: TSA treatment
# Description: (§1) To verify that cystatin E/M expression was not limited to RNA synthesis and to identify the cellular location of protein expression, immunofluorescence (IF) was used. Cystatin E/M expression was absent in the untreated HeLa cells. […] There was uniform expression in the cytoplasm of all cells. […] Thus, re-expression of the gene by treatment with 5-AzaCdR and TSA in HeLa and SiHa cells, respectively, confirmed promoter methylation and/or histone deacetylation playing a role in the inactivation of cystatin E/M expression in these two cell lines.
# (§2) Cells were grown overnight on cover slips to semiconfluency (about 70 to 80%) and treated with 5- AzaCdR or TSA, or transfected with plasmid DNAs. Immunofluorescence was performed using the anti cystatin E/M antibody (R & D Systems, Minneapolis, Minn.) following an established protocol. See LoTempio et al. (2005).
# [3] = test system: cystatin E/M; assay: Immunofluorescence of cystatin E/M protein in treated HeLa cells; conditions: 24 hours post-treatment, 5 μM 5-AzaCdR
# Description: as §1, §2
# [4] = test system: cystatin E/M gene promoter; assay: Sodium bisulfite PCR and sequencing of cystatin E/M promoter CpG methylation in HeLa cells; conditions: HeLa cells after treatment with 5-AzaCdR
# Method: Having established the promoter activity, four different cell lines and 18 primary tumors were examined for CpG methylation using the sodium bisulfite protocol. Normal endometrium from 16 of the tumors, four different non-involved normal lymphocytes and a lung tissue were used as controls. The analysis was performed using the sequences spanning the −14 to −151 by region of the promoter (NT—033903.7). […] Untreated HeLa cells yielded the 138 by product with the methylation specific PCR. Cell lines Caski, C41, C33A, three of 21 normal tissues (14%) and 7 of 16 tumors (44%) gave the PCR product with both the unmethylation and methylation specific PCRs. Five other tumors (31%) contained only the methlyation specific product. Thus, there was a significant frequency of methylated promoter in the cervical tumors ([…] in tumors versus 3 of 21, 14% in normals, P<0.01, Student's t-test). Methylation in the three normal endometrial tissues could also represent tumor cell contamination. Four of the tumors contained methylation and point mutation (Table 1, FIG. 4A) indicating possible two hits for the functional inactivation of the cystatin E/M gene.
# To confirm promoter hypermethylation in the cell lines, sequencing was carried out on the PCR products cloned into the pTOPO plasmid vector. […]
SMILES,cystatin E/M RNA expression ([1]; TSA 150 μM),cystatin E/M protein expression by immunofluorescence [2],cystatin E/M RNA expression ([1]; 5 μM and 10 μM 5-AzaCdR),cystatin E/M RNA expression ([1]; 50 μM 5-AzaCdR),cystatin E/M protein expression by immunofluorescence [3],methylation of C residues in promoter CpG sequences [4]
"CC(/C=C/C(=O)NO)=C\[C@@H](C)C(=O)c1ccc(N(C)C)cc1 [TSA, Trichostatin A]",High level RNA expression,uniform cytoplasmic protein expression,–,–,–,–
"Nc1ncn([C@H]2C[C@H](O)[C@@H](CO)O2)c(=O)n1 [5-AzaCdR, 5′Aza 2-deoxycytidine]",–,–,did not show expression,low level expression,cystatin E/M expression was observed,demethylation of the C residues
